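Cultured in 96-well plates, cells were exposed to test compound for 48 hours across five concentrations. At the TGI there is no net growth.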
Assays:
Assay in all cases: inhibition of tumour cell growth, NCI panel, 48 h
SF-268 CNS = test system: SF-268 CNS
HT29 colon = test system: HT29 colon
A498 renal = test system: A498 renal
NCI-H460 lung = test system: NCI-H460 lung
HCT-116 colon = test system: HCT-116 colon
RXF 393 renal = test system: RXF 393 renal
UACC-257 melanoma = test system: UACC-257 melanoma
MDA-N = test system: MDA-N
HS 578T breast = test system: HS 578T breast
PC-3 prostate = test system: PC-3 prostate
MDA-MB-231 breast = test system: MDA-MB-231 breast
MDA-MB-435 = test system: MDA-MB-435
MOLT-4 leukemia = test system: MOLT-4 leukemia
HCT-15 colon = test system: HCT-15 colon
SK-OV-3 ovarian = test system: SK-OV-3 ovarian
CCRF-CEM leukemia = test system: CCRF-CEM leukemia
HL-60(TB) leukemia = test system: HL-60(TB) leukemia
K-562 leukemia = test system: K-562 leukemia
A549 NSCLC = test system: A549 NSCLC
SN12C renal = test system: SN12C renal
SW-620 colon = test system: SW-620 colon
SNB-75 CNS = test system: SNB-75 CNS
SR leukemia = test system: SR leukemia
U251 CNS = test system: U251 CNS
NCI-H226 lung = test system: NCI-H226 lung
SNB-19 CNS = test system: SNB-19 CNS
TK-10 renal = test system: TK-10 renal
KM12 colon = test system: KM12 colon
NCI/ADR-RES ovarian = test system: NCI/ADR-RES ovarian
LOX IMVI melanoma = test system: LOX IMVI melanoma
HCC-2998 colon = test system: HCC-2998 colon
HOP-92 NSCLC = test system: HOP-92 NSCLC
T-47D breast = test system: T-47D breast
NCI-H23 lung = test system: NCI-H23 lung
M14 melanoma = test system: M14 melanoma
DU-145 prostate = test system: DU-145 prostate
OVCAR-3 ovarian = test system: OVCAR-3 ovarian
UO-31 renal = test system: UO-31 renal
ACHN renal = test system: ACHN renal
SK-MEL-5 melanoma = test system: SK-MEL-5 melanoma
SF-295 CNS = test system: SF-295 CNS
OVCAR-8 ovarian = test system: OVCAR-8 ovarian
COLO 205 colon = test system: COLO 205 colon
SK-MEL-28 melanoma = test system: SK-MEL-28 melanoma
BT-549 breast = test system: BT-549 breast
OVCAR-5 ovarian = test system: OVCAR-5 ovarian
UACC-62 melanoma = test system: UACC-62 melanoma
NCI-H522 lung = test system: NCI-H522 lung
IGROV1 ovarian = test system: IGROV1 ovarian
EKVX NSCLC = test system: EKVX NSCLC
786-0 renal = test system: 786-0 renal
MCF7 breast = test system: MCF7 breast
SF-539 CNS = test system: SF-539 CNS
HOP-62 NSCLC = test system: HOP-62 NSCLC
SK-MEL-2 melanoma = test system: SK-MEL-2 melanoma
CAKI-1 renal = test system: CAKI-1 renal
OVCAR-4 ovarian = test system: OVCAR-4 ovarian
MALME-3M melanoma = test system: MALME-3M melanoma

Compound: COc1ccc2c(c1)/C(=C/CCN(C)C)c1ccccc1S2
- TGI (SF-268 CNS): > 100 µM
- TGI (HT29 colon): > 100 µM
- TGI (A498 renal): > 100 µM
- TGI (NCI-H460 lung): > 100 µM
- TGI (HCT-116 colon): > 100 µM
- TGI (RXF 393 renal): > 100 µM
- TGI (UACC-257 melanoma): > 100 µM
- TGI (MDA-N): > 100 µM
- TGI (HS 578T breast): > 100 µM
- TGI (PC-3 prostate): > 100 µM
- TGI (MDA-MB-231 breast): > 100 µM
- TGI (MDA-MB-435): > 100 µM
- TGI (MOLT-4 leukemia): > 100 µM
- TGI (HCT-15 colon): > 100 µM
- TGI (SK-OV-3 ovarian): > 100 µM
- TGI (CCRF-CEM leukemia): > 100 µM
- TGI (HL-60(TB) leukemia): > 100 µM
- TGI (K-562 leukemia): > 100 µM
- TGI (A549 NSCLC): > 100 µM
- TGI (SN12C renal): > 100 µM
- TGI (SW-620 colon): > 100 µM
- TGI (SNB-75 CNS): > 100 µM
- TGI (SR leukemia): > 100 µM
- TGI (U251 CNS): > 100 µM
- TGI (NCI-H226 lung): > 100 µM
- TGI (SNB-19 CNS): > 100 µM
- TGI (TK-10 renal): > 100 µM
- TGI (KM12 colon): > 100 µM
- TGI (NCI/ADR-RES ovarian): > 100 µM
- TGI (LOX IMVI melanoma): > 100 µM
- TGI (HCC-2998 colon): > 100 µM
- TGI (HOP-92 NSCLC): > 100 µM
- TGI (T-47D breast): > 100 µM
- TGI (NCI-H23 lung): > 100 µM
- TGI (M14 melanoma): > 100 µM
- TGI (DU-145 prostate): > 100 µM
- TGI (OVCAR-3 ovarian): > 100 µM
- TGI (UO-31 renal): 88.6 µM
- TGI (ACHN renal): > 100 µM
- TGI (SK-MEL-5 melanoma): 31.7 µM
- TGI (SF-295 CNS): > 100 µM
- TGI (OVCAR-8 ovarian): > 100 µM
- TGI (COLO 205 colon): 38 µM
- TGI (SK-MEL-28 melanoma): 38.8 µM

Compound: COc1cccc(C(=O)O[C@H]2[C@@H]3[C@]4(OC(C)=O)CO[C@@H]4C[C@H](O)[C@@]3(C)C(=O)[C@H](OC(C)=O)C3=C(C)[C@@H](OC(=O)[C@H](O)[C@@H](NC(=O)OC(C)(C)C)c4ccco4)C[C@]2(O)C3(C)C)c1
- TGI (SF-268 CNS): > 37.5 µM
- TGI (HT29 colon): 0.133 µM
- TGI (NCI-H460 lung): > 37.5 µM
- TGI (HCT-116 colon): 9.93 µM
- TGI (BT-549 breast): > 34.1 µM
- TGI (RXF 393 renal): > 9.16 µM
- TGI (UACC-257 melanoma): > 37.5 µM
- TGI (OVCAR-5 ovarian): > 22.8 µM
- TGI (MDA-N): 0.0382 µM
- TGI (HS 578T breast): 3.4 µM
- TGI (MDA-MB-231 breast): > 37.5 µM
- TGI (MDA-MB-435): 0.0909 µM
- TGI (MOLT-4 leukemia): 9.99 µM
- TGI (UACC-62 melanoma): > 27.6 µM
- TGI (HCT-15 colon): > 16.4 µM
- TGI (SK-OV-3 ovarian): 0.0279 µM
- TGI (CCRF-CEM leukemia): 0.368 µM
- TGI (NCI-H522 lung): 0.157 µM
- TGI (A549 NSCLC): > 37.5 µM
- TGI (IGROV1 ovarian): > 37.5 µM
- TGI (SN12C renal): > 37.5 µM
- TGI (EKVX NSCLC): > 28.9 µM
- TGI (SW-620 colon): > 37.5 µM
- TGI (SNB-75 CNS): 0.0241 µM
- TGI (SR leukemia): > 14.8 µM
- TGI (U251 CNS): > 16.6 µM
- TGI (NCI-H226 lung): > 15.2 µM
- TGI (SNB-19 CNS): > 30 µM
- TGI (TK-10 renal): 27.4 µM
- TGI (KM12 colon): > 15.2 µM
- TGI (786-0 renal): > 37.5 µM
- TGI (NCI/ADR-RES ovarian): > 18.3 µM
- TGI (LOX IMVI melanoma): > 15.6 µM
- TGI (MCF7 breast): > 37.5 µM
- TGI (SF-539 CNS): 0.33 µM
- TGI (HOP-62 NSCLC): > 32.7 µM
- TGI (NCI-H23 lung): > 37.5 µM
- TGI (M14 melanoma): 5.9 µM
- TGI (DU-145 prostate): > 37.5 µM
- TGI (SK-MEL-2 melanoma): 16.9 µM
- TGI (OVCAR-3 ovarian): < 0.00375 µM
- TGI (CAKI-1 renal): > 37.5 µM
- TGI (OVCAR-4 ovarian): > 37.5 µM
- TGI (UO-31 renal): > 35 µM
- TGI (MALME-3M melanoma): > 37.5 µM
- TGI (ACHN renal): > 37.5 µM
- TGI (SK-MEL-5 melanoma): > 15.7 µM
- TGI (SF-295 CNS): 0.151 µM
- TGI (OVCAR-8 ovarian): > 14.4 µM
- TGI (COLO 205 colon): 0.119 µM
- TGI (SK-MEL-28 melanoma): > 29.5 µM
